One data set has as its system CAG human myeloma cells. In kind it is in vivo, SCID mice. The procedure: CAG human myeloma cells are grown in cell culture to a density that allows 1 million cells to be harvested for transplantation to 6-8-week old female SCID mice obtained from Charles River Laboratories (Frederick, MD). The mice are immunosuppressed by pretreatment with fludarabine and cyclophosphamide 3 days before intravenous injection of 5-10 x […] myeloma cells as described in Stein et al. (Blood. 2004; 104:3705-11). Mice are examined daily for signs of distress or hind-leg paralysis, and weighed weekly. Paralysis of the hind legs or a weight loss of ≥ 20% is used as the survival endpoint, when the animals are euthanized. Groups of 8-10 mice are used. […] The effects of combining bortezomib with hR1 are evaluated in the same myeloma model. Treatments are given as two i.p. doses/week for 3 weeks, initiated on day 5 after injection of the myeloma cells. […] Treatment with hR1 at 0.6 mg/mouse repeated twice weekly for 3 weeks increases the median survival time to 60 days. When bortezomib and hR1 treatments are combined, the median survival time is increased further to 79 days for 0.5 mg bortezomib + 0.6 mg hR1, which is significant (P=0.04).

For another data set, the target named is DDD. The following applies: DDD of RII / RIIα dimers; read-out: binding constant for DDD; cited from earlier work.
DDD, sequence (P13861 2-45 limits assumed): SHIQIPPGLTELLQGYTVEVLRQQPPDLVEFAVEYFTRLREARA
In another data set the target is RII isoform of PKA (Homo sapiens, UniProt P13861). Conditions: cited from earlier work.
RII isoform of PKA, sequence (P13861 whole entry, canonical isoform): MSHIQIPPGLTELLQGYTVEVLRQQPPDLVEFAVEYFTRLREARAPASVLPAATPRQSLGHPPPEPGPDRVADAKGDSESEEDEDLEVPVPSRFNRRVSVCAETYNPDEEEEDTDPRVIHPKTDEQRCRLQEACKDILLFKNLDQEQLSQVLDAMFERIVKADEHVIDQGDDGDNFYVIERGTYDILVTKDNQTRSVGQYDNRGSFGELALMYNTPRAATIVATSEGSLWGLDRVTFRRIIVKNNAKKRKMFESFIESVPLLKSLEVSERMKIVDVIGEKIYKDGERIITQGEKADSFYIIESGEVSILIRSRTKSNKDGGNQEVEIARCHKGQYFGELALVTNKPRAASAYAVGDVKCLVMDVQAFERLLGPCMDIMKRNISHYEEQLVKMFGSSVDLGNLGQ

Take `CC(C)C[C@H](NC(=O)[C@H](Cc1ccccc1)NC(=O)c1cnccn1)B(O)O` [bortezomib]: the “increase of median survival” value in the data set on CAG human myeloma cells (0.5 mg/kg, versus untreated control mice) was 21.2%. For the same compound, the “tolerability, body-weight loss” value with CAG human myeloma cells (mouse, in vivo, 0.5 mg/kg) is recorded as “well tolerated, with no body-weight loss”. This compound also returned a median survival in the data set on CAG human myeloma cells (two i.p. doses/week for 3 weeks from day 5, bortezomib 0.5 mg/kg, hR1 0.6 mg/mouse, untreated control 33 days) of 40 days. In the case of “QIEYLAKQIVDNAIQQA (SEQ ID NO: 17) [AKAP-IS]”, the Kd on DDD was 0.4 nM. Regarding “QIEYVAKQIVDYAIHQA (SEQ ID NO:39) [SuperAKAP-IS]”, in the data set with RII isoform of PKA, the “selectivity for the RII isoform of PKA compared with the RI isoform” value is reported as “five order of magnitude higher selectivity”.

(Values after EP2525820B1, “NOVEL CLASS OF MONOSPECIFIC AND BISPECIFIC HUMANIZED ANTIBODIES THAT TARGET THE INSULIN-LIKE GROWTH FACTOR TYPE I RECEPTOR (IGF-1R)” (Immunomedics, Inc., priority 2010, dated 2011).)
